# In patent US20230181614A1, “ADMINISTRATION OF CITICOLINE TO IMPROVE COGNITIVE PERFORMANCE, ATTENTIONAL PERFORMANCE, AND MOTOR FUNCTION” (KYOWA HAKKO BIO CO., LTD., priority 2014, published 2023):
# How the values were obtained:
# [1] = system: Healthy subjects, ages 13-18; experiment: Monitoring of Side Effects Scale (MOSES); format: in vivo, human; details: for V2 MOSES (Mean): Visit 2; for V3 MOSES (Mean): Visit 3; for MOSES V3-V2 Score (Mean): visit difference score V3-V2; for MOSES difference scores, between groups: visit 1 to visit 3 (so in the source); for MOSES, within-group change: visit 2 to 3
# Excerpt: Study participants were screened by telephone prior to study enrollment. Healthy subjects, ages 13-18, with no significant medical conditions and no history of co-morbid psychiatric disorder, current Axis I or II diagnosis, or previous participation in a pharmacotherapeutic trial, were selected. Use of any psychotropic medication or any previous head injury resulting in loss of consciousness for 5 or more minutes were used as exclusion criteria. While no participant met criteria for a neuropsychiatric disorder at enrollment, clinical assessments were still completed throughout the study to evaluate changes in mood state. In addition, self-reports of sleep habits, lifestyle, and exercise routines were also administered at baseline as well as at each study visit to assess changes in health habits during study participation. Following the completion of Visit 1 assessment, participants were given their 28-day supply of citicoline (250 mg or 500 mg) or placebo, which was randomly assigned. They were instructed to take one capsule a day every day for the next 28 days. Visit 2 occurred fourteen days after Visit 1. At Visit 2, the remaining study pills were counted and participant dosage calendars were checked to ensure compliance with the protocol. Additional neuropsychological measures and clinical assessments were administered during this visit. Participants returned for Visit 3 fourteen days later, on the 28th day of their study participation. The pill bottle and the dosage calendar were collected from each participant. Urine and blood were again obtained. Participants also participated in similar clinical and neuropsychological testing and clinical measures that were given during visit 1. The MOSES is a scale designed to assess common symptoms or adverse events associated with psychopharmacological medications. This scale is divided into nine body areas representing a typical physical examination. The interviewer asks subjects whether they have each symptom on the measure and, if so, asks them to report the level of severity of the symptom on a scale from 0 (not present) to 4 (severe). […]
# [2] = system: Healthy subjects, ages 13-18; experiment: Wisconsin Card Sorting Task (WCST); format: in vivo, human; details: Visit 3
# Excerpt: Study participants were screened by telephone prior to study enrollment. Healthy subjects, ages 13-18, with no significant medical conditions and no history of co-morbid psychiatric disorder, current Axis I or II diagnosis, or previous participation in a pharmacotherapeutic trial, were selected. Use of any psychotropic medication or any previous head injury resulting in loss of consciousness for 5 or more minutes were used as exclusion criteria. While no participant met criteria for a neuropsychiatric disorder at enrollment, clinical assessments were still completed throughout the study to evaluate changes in mood state. In addition, self-reports of sleep habits, lifestyle, and exercise routines were also administered at baseline as well as at each study visit to assess changes in health habits during study participation. Following the completion of Visit 1 assessment, participants were given their 28-day supply of citicoline (250 mg or 500 mg) or placebo, which was randomly assigned. They were instructed to take one capsule a day every day for the next 28 days. Visit 2 occurred fourteen days after Visit 1. At Visit 2, the remaining study pills were counted and participant dosage calendars were checked to ensure compliance with the protocol. Additional neuropsychological measures and clinical assessments were administered during this visit. Participants returned for Visit 3 fourteen days later, on the 28th day of their study participation. The pill bottle and the dosage calendar were collected from each participant. Urine and blood were again obtained. Participants also participated in similar clinical and neuropsychological testing and clinical measures that were given during visit 1. The WCST assess a person’s ability to form abstract concepts, utilize feedback, and to shift and maintain set. […] The WCST involves 4 stimulus cards that vary in color, geometric form, and number. Without knowing the criterion, participants are asked to match cards from a deck to the stimulus cards. After the participant places each card, they are told whether they are correct or incorrect and should change the element they are matching based on this feedback. […] The WCST was given on the third visit of the study.
structure (smiles),measurement,setting,value
"C[N+](C)(C)CCOP(=O)(O)OP(=O)([O-])OC[C@H]1O[C@@H](n2ccc(N)nc2=O)[C@H](O)[C@@H]1O [citicoline, Cytidine 5′-diphosphocholine]",V2 MOSES (Mean),[1]; 250 mg/day group,1.30
same,V3 MOSES (Mean),[1]; 250 mg/day group,1.04
same,MOSES V3-V2 Score (Mean),[1]; 250 mg/day group,-0.26
same,"MOSES difference scores, between groups","[1]; 250 mg/day vs 500 mg/day, p=0.64",no significant differences
same,"MOSES, between groups","[1]; 250 mg/day vs 500 mg/day, visit 3, p=0.11",no significant difference
same,"MOSES difference scores, between groups","[1]; 250 mg/day vs Placebo, p=0.70",no significant differences
same,"MOSES, between groups","[1]; 250 mg/day vs Placebo, visit 3, p=0.21",no significant difference
same,"MOSES, within-group change","[1]; 250 mg/day, p=0.34",no significant differences
same,V2 MOSES (Mean),[1]; 500 mg/day group,0.81
same,V3 MOSES (Mean),[1]; 500 mg/day group,0.38
same,MOSES V3-V2 Score (Mean),[1]; 500 mg/day group,-0.43
same,"MOSES, within-group change","[1]; 500 mg/day, p=0.07",trend toward significant differences
same,"MOSES difference scores, between groups","[1]; Placebo vs 500 mg/day, p=0.30",no significant differences
same,"MOSES, between groups","[1]; Placebo vs 500 mg/day, visit 3, p=0.85",No significant difference
same,"MOSES difference scores, three groups",[1]; p=0.66,no significant differences
same,"MOSES, overall analysis","[1]; three groups, visit 3, p=0.23",no significant differences
same,WCST V3 Number of Categories Achieved (Mean),[2]; 250 mg/day group,5.69
same,WCST V3 Number of Trials to Complete Category (Mean),[2]; 250 mg/day group,71.15
same,WCST V3 Number of Trials to Get into Category (Mean),[2]; 250 mg/day group,15.19
same,WCST V3 Total Cards Used (Mean),[2]; 250 mg/day group,90.88
same,WCST V3 Total Errors (Mean),[2]; 250 mg/day group,19.73
same,WCST V3 Total Perseverative Errors (Mean),[2]; 250 mg/day group,8.54
same,WCST V3 Number of Categories Achieved (Mean),[2]; 500 mg/day group,5.87
same,WCST V3 Number of Trials to Complete Category (Mean),[2]; 500 mg/day group,70.57
same,WCST V3 Number of Trials to Get into Category (Mean),[2]; 500 mg/day group,13.78
same,WCST V3 Total Cards Used (Mean),[2]; 500 mg/day group,89.57
same,WCST V3 Total Errors (Mean),[2]; 500 mg/day group,19.00
same,WCST V3 Total Perseverative Errors (Mean),[2]; 500 mg/day group,9.13
